Assay results reported in article PMC4492822 (EMBO Molecular Medicine, 2015).

What was measured:
H1299 cells [1] = test: qRT-PCR of TCF-regulated genes; assay type: cell-based
Source text: RNA was extracted according to the manufacturer's instructions (Qiagen, Valencia, CA, USA), and cDNA was manufactured using qScript cDNA synthesis kit (Quanta BioSciences, Gaithersburg, MD, USA), followed by qPCR using SYBR green (Quanta BioSciences) on an iCycler5 (Bio-Rad, Hercules, CA, USA). Amplification of 36B4, a housekeeping gene, was used for normalizing gene expression values.

[2] = test system: preclinical breast and sarcoma models; test: Single agent activity in preclinical breast and sarcoma models; assay type: in vivo; details: authors' response to reviewers
Source text: EMBO Molecular Medicine Peer Review Process File - EMM-2014-04368 levels vary based on the datasets analyzed. In addition, as far as DDX3 protein levels are concerned, […]
making it difficult to interpret the gene expression datasets as an absolute unit to that of the protein […]
3) A more detailed description of expression in other normal tissues would help anticipate toxicities.
Response: It is difficult to ascertain if the levels of DDX3 in the normal cells will directly correlate to toxicities levels following RK-33 treatment. It is possible that normal cells are not dependent on DDX3 for its cellular biogenesis as compared to the cancer cells. This could be one of the reasons why there is no observable toxicity within our experimental setting. Also, as a first step to determine toxicity for a novel drug, it is essential to test the effect in small animals like mouse or rat. Based on these criteria, we observed no toxicity in mouse at higher levels than the therapeutic dose to kill […]
impart any visible side effects.
4) Legends for Figure 2 are mislabeled.
Response: We thank the reviewer for pointing this out. We have rectified this in the revised […]
5) What is the subsrate in the helicase assay. Have the authors explored RNA secondary (e.g. G-quadruplex or hairpin structures)? […]
10) Figure 7. Please add a quantification of cell death. […]

H1299 cells [3] = test: Cell cycle analysis by flow cytometry; assay type: cell-based; details: 0, 2, 4, and 6 μM, dose-dependent
Procedure: A549 and H1299 cells were plated at 1 × 10^5 cells per well of a 6-well plate. Cell cycle was carried out as previously described (Vesuna et al, [2012]). Briefly, cells were trypsinized 24 h after plating and fixed in 70% ethanol overnight at −20°C. Fixed cells were washed with PBS and resuspended in DNA-staining solution (5 μg/ml propidium iodide, 0.5 mg/ml RNase A) for 1 h at room temperature. Cell cycle acquisition was performed on a FACScan I or FACSCalibur instrument (BD Biosciences, San Jose, CA, USA). Independent experiments were repeated three times. Data were analyzed using FlowJo software (Tree Star Inc., Ashland, OR, USA).

A549 cells = test: Colony-forming assay with γ-radiation; assay type: cell-based, human; details: 1 μM and 2 μM, added 4 h before radiation
Procedure: Cells were irradiated at room temperature with 0.5 Gy/min to the desired dose using a Gammacell 40 ^137Cs irradiator. For in vivo experiments, mice were treated using the Small Animal Radiation Research Platform (Wong et al, [2008]). The tumors were irradiated with a circular beam of 1 cm diameter.
Cells were counted, plated, and allowed to attach overnight. RK-33 at specified doses was added 4 h before radiation was delivered. Colonies were stained and counted approximately 10 days after irradiation. Surviving fraction was calculated by dividing the number of colonies formed by the number of cells plated times the plating efficiency. Curves were fitted with a quadratic polynomial equation. P-values were determined by the extra sum of square F-test.

## diimidazo[4,5-d:4′,5′-f]-[1,3]diazepine [RK-33]
H1299 cells [1]
  reduction of Axin-2 mRNA expression: 1.8 fold
  reduction of Cyclin D1 mRNA expression: 2.4 fold
[2]
  single agent activity: delayed tumor growth
H1299 cells [3]
  cell cycle effect: G1 arrest
A549 cells
  sensitization to γ-radiation: sensitized A549 cells to γ-radiation
